Literature values as cited in PMC6848746 (Psychopharmacology, 2019).
Where two headings read alike, the source gives them in different places.

Legend:
rats [1] = details: MMAI discrimination; ref Marona-Lewicka and Nichols 1994, 1998; cited from earlier work
5-HT2B receptor = details: read-out: 5-HT2B receptor Ki, vs. [3H]LSD, cited from earlier work
rats [2] = details: ref Bilsky et al. 1990, Marona-Lewicka et al. 1996; cited from earlier work
hDAT [3] = details: read-out: [125I]RTI-55 binding to hDAT Ki; ref Eshleman et al. 2017; cited from earlier work
hDAT [4] = details: cited from earlier work

CNC(C)Cc1ccc2c(c1)OCO2 (stereo not drawn) [MDMA, 3,4-methylenedioxymethamphetamine, reference compound]
substitution for MMAI (rats [1]): fully substituted
Ki (5-HT2B receptor; ref Setola et al. 2003): 0.5 µM
place conditioning effect (rats [2]): conditioned place preference

COC(=O)[C@H]1[C@@H](OC(=O)c2ccccc2)C[C@@H]2CC[C@H]1N2C [cocaine, reference compound]
substitution for MMAI (rats [1]): did not substitute

CCN[C@@H](C)Cc1cccc(C(F)(F)F)c1 [(+)-fenfluramine, reference compound]
substitution for MMAI (rats [1]): fully substituted

CN[C@@H](C)Cc1ccccc1 [methamphetamine]
Ki (hDAT [3]): 4.58 µM
IC50 (hDAT [4]; read-out: [3H]DA uptake inhibition IC50, ref Eshleman et al. 2017): 0.0667 µM
fold higher potency for [3H]DA uptake inhibition than [125I]RTI-55 displacement (hDAT [4]; ref Eshleman et al. 2017): about 70 fold

CC[C@@H](Cc1ccc2c(c1)OCO2)NC [S-(+)-MBDB, S-(+)-N-methyl-1-(1,3-benzodioxol-5-yl)-2-butanamine, reference compound]
substitution for MMAI (rats [1]): fully substituted

NC1Cc2ccc(I)cc2C1 (stereo not drawn) [5-IAI, 5-iodo-2-aminoindan]
Ki (5-HT2B receptor; ref Iversen et al. (2013)): 0.07 µM

CC(N)Cc1ccc2c(c1)OCO2 (stereo not drawn) [MDA]
Ki (5-HT2B receptor; ref Setola et al. 2003): 0.1 µM

C[C@H](N)Cc1ccccc1 [(+)-amphetamine, reference compound]
substitution for MMAI (rats [1]): did not substitute
